Earlier results as cited in patent publication US20030064123A1, “DHEA supplement for increasing women's libido” (priority 2001, published 2003).

Tests used:
[1] = post-menopausal women, oral DHEA 25 mg/day, after six months
[2] = system: ventrobasal complex of the thalamus; settings: rat
[3] = system: androgen-deficient female patients; settings: testosterone injections

C[C@]12CC[C@H](O)CC1=CC[C@@H]1[C@@H]2CC[C@]2(C)C(=O)CC[C@@H]12 [DHEA, Dihydroepiandosterone]
estrogen levels [1]: returned to premenopausal levels
testosterone levels [1]: returned to premenopausal levels

N=C(N)NCCC[C@H](N)C(=O)O [L-arginine]
excitatory amino acid responses and sonato sensory transmission [2]: enhancement

C[C@]12CC[C@H]3[C@@H](CCC4=CC(=O)CC[C@@]43C)[C@@H]1CC[C@@H]2O [testosterone]
libido and ability to become aroused and achieve a satisfactory orgasm [3]: resolved
